For series [1], the target named is T1, Solute carrier family 15 member 1 (Homo sapiens, UniProt P46059).
T1 sequence (P46059 whole entry): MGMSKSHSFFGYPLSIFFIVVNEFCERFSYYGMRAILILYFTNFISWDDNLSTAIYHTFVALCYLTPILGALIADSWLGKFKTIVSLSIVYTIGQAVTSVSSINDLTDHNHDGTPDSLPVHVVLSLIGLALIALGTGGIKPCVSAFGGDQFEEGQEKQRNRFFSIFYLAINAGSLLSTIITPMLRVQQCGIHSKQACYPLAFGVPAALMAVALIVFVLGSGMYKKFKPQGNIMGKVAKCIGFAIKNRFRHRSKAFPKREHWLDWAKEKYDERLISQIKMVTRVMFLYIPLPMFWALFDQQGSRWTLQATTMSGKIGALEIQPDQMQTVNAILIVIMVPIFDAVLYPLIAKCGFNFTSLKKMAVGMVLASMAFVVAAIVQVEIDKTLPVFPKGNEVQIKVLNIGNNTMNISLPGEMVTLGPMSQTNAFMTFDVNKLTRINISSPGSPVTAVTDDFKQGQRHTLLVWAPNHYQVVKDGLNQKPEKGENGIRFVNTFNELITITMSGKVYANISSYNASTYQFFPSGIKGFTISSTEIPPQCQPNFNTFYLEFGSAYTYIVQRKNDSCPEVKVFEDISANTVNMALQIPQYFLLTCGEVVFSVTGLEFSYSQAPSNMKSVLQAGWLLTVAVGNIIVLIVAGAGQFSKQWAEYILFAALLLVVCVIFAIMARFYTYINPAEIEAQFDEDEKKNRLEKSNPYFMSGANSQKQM
Description: TP_TRANSPORTER: inhibition of Gly-Sar uptake (Gly-Sar: 20 uM) in PEPT1-expressing CHO cells. It counts as functional, cell-based.

Series [2] deals with T1, Solute carrier family 15 member 1. Description: TP_TRANSPORTER: inhibition of Gly-Sar uptake, D-form (Gly-Sar: 20 uM) in PEPT1-expressing CHO cells. It counts as functional, cell-based.
Series [3] shares this target. Nature of the series: TP_TRANSPORTER: inhibition of Gly-Sar uptake, L-form (Gly-Sar: 20 uM) in PEPT1-expressing CHO cells. Format: functional, cell-based.
Substrate in series [4]: CC(C)[C@H](N)C(=O)OCCOCn1cnc2c(=O)nc(N)[nH]c21
Description: TP_TRANSPORTER: transepithelial transport (apical to basal), L-form in Caco-2 cells
The settings on record: Caco-2.

A word on the IC50: it is the concentration needed to halve the response being measured. Read a high IC50 as weaker potency. `CC1=C(C(=O)O)N2C(=O)[C@@H](NC(=O)[C@H](N)C3=CCC=CC3)[C@H]2SC1` [CEPHRADINE]: the IC50 in series [1] turned out to be 15000 µM. The same measure, in the same setting: the same measure for `CCOC(=O)[C@H](CCc1ccccc1)N[C@@H](C)C(=O)N1CCC[C@H]1C(=O)O` [ENALAPRIL]: 15000 µM. Still for that read-out and setting: under `NCC(=O)OCCOCn1cnc2c(=O)[nH]c(N)nc21` [GLYCYL ESTER OF ACYCLOVIR] stands 1400 µM. For `CC(C)[C@H](N)C(=O)OCCOCn1cnc2c(=O)[nH]c(N)nc21` [VALACYCLOVIR], the IC50 in series [2] came out at 3400 µM; in series [1] it was 400 µM; in series [3] it was 1100 µM.

B1: Solute carrier family 15 member 1 (Homo sapiens), P46059 (protein)
chain: T1 sequence (P46059 whole entry)
Broadly, the Km is the concentration of substrate that gives half-maximal velocity. Regarding B1, in series [4], the Michaelis-Menten constant (Km) amounted to 292 µM.

The record behind these values is ChEMBL document CHEMBL2074308, “5'-Amino acid esters of antiviral nucleosides, acyclovir, and AZT are absorbed by the intestinal PEPT1 peptide transporter” (Pharm Res, 1998).
